{"source": "patent US6869593B2", "about": "“Non-isotopic detection of osteoblastic activity in vivo using modified bisphosphonates” (Beth Israel Deaconess Medical Center, priority 2000, dated 2005)", "key": {"[1]": {"test": "Serum concentration after intravenous injection (plasma elimination)", "conditions": "2.6 nmol intravenous, tail vein", "quoted_text": "Hairless 7 week old male nu/nu mice (Charles River Laboratories, Wilmington, Mass.; average weight 25 g) were anesthetized with 50 mg/kg i.p. pentobarbital. The lateral tail vein was visualized using a flashlight and 2.6 nmol of compound resuspended in 80 μl of phosphate buffered saline (PBS) was injected using a bent, 30 gauge, ½″ needle. For measurement of plasma concentration, the tip of the tail of an anesthetized animal was cut with a razor blade, and 75 μl of whole blood was milked, and collected with a capillary tube. After clotting and removal of cells by centrifugation, serum was diluted 1:10 in 50 mM Hepes, pH 7.4 and a wavelength scan from 400 nm to 850 nm was performed. Serum concentration was determined by peak height at 771 nm after subtraction of background (pre-injection serum), and correction for hemoglobin absorbance."}, "[2]": {"test": "Spectral measurements (absorbance, fluorescence)", "assay_type": "physicochemical", "protocol": "Spectral Measurements. Absorbance measurements and scans were performed on a Model DU-600 spectrophotometer (Beckman, Fullerton, Calif.) using 1 μM of each compound in 20 mM N-ethylmorpholine (NEM), pH 7.4 and 150 mM KCl (NK buffer). Fluorescence measurements, and excitation/emission scans were performed on a SPECTRAmax Gemini XS microplate reader (Molecular Devices, Sunnyvale, Calif.) using Model 655076 black 96-well plates (Greiner, Lake Mary, Fla.), and […] of each compound in NK buffer. Curves were analyzed using SOFTmax PRO software (Molecular Devices, Sunnyvale, Calif.) and plotted using Prism3 for the Macintosh (GraphPad Software, Inc., San Diego, Calif.)."}, "[3]": {"test": "In vivo near-infrared fluorescence imaging of HA", "quoted_text": "Compound Injection and Measurement of Serum Concentration. Hairless 7 week old male nu/nu mice (Charles River Laboratories, Wilmington, Mass.; average weight 25 g) were anesthetized with 50 mg/kg i.p. pentobarbital. The lateral tail vein was visualized using a flashlight and 2.6 nmol of compound resuspended in 80 μl of phosphate buffered saline (PBS) was injected using a bent, 30 gauge, ½″ needle."}, "[4]": {"test": "Kinetic binding to hydroxyapatite crystals", "conditions": "5 μM compound, 37° C.", "protocol": "In Vitro Hydroxyapatite Binding Experiments. For kinetic measurements of binding to HA, 5 μM Pam78 or the carboxylic acid of IRDye78 was added from a 20× stock solution to 100 μl NK buffer containing 1.5 mg/ml (1.5 mM) HA. Suspensions were continuously vortexed at 37° C. for the time indicated. Bound and unbound material was separated using a 0.2 μm filter in a 96-well format (Model MAGVN2210, Millipore, Bedford, Mass.), and the concentration of material in the filtrate was measured using the SPECTRAmax Gemini XS fluorescence microplate reader set for an excitation wavelength of 771 nm and an emission wavelength of 796 nm. Bound material was calculated by subtracting unbound compound from the total added to each reaction."}, "[5]": {"test": "Quantitation of skeletal uptake by rib fluorescence intensity", "quoted_text": "However, we were able to estimate skeletal uptake by measuring fluorescence intensity of the ribs in the skinless animal. Calibration standards matching the geometry of the ribs were placed next to the animal and mean fluorescence intensities of each standard and the caudal three ribs on each side were measured."}, "[6]": {"test": "Competition of Pam78 binding to HA by unlabeled pamidronate", "conditions": "80 nmol (800 μM) unlabeled pamidronate; 2.5 μM Pam78; 1.5 mg/ml HA; three hours", "protocol": "For competition experiments, free pamidronate was pre-incubated in 100 μl NK buffer with 1.5 mg/ml (1.5 mM) HA for five minutes at room temperature with continuous vortexing. Pam78 was then added from a 20× stock solution to a final concentration of 2.5 μM. Incubation at 37° C. with continuous vortexing continued for three hours prior to filtration and measurement as described above."}, "[7]": {"conditions": "rats; cited from earlier work"}}}
{"smiles": "CC1(C)C(/C=C/C2=C(Oc3ccc(CCC(=O)NCCC(O)(P(=O)([O-])O)P(=O)(O)O)cc3)C(=C\\C=C3/N(CCCCS(=O)(=O)O)c4ccc(S(=O)(=O)O)cc4C3(C)C)/CCC2)=[N+](CCCCS(=O)(=O)O)c2ccc(S(=O)(=O)O)cc21", "note": "(centres unmarked) [Pam78]", "values": [{"measurement": "early half-life of elimination from plasma", "setting": "[1]", "value": 5.0, "unit": "min"}, {"measurement": "late half-life of elimination from plasma", "setting": "[1]", "value": 15.4, "unit": "min"}, {"measurement": "peak absorption", "setting": "[2]; 1 μM in NK buffer", "value": "unchanged from IRDye78"}, {"measurement": "peak emission", "setting": "[2]; excitation fixed at 771 nm, NK buffer", "value": 796, "unit": "nm"}, {"measurement": "time at which uptake in spine, ribs, paws and knees is detected above background", "setting": "[3]; 2.6 nmol intravenous", "value": 15, "unit": "min"}, {"measurement": "time by which phalanges, wrist, skull, pelvis, femur and ankle become visible", "setting": "[3]; 2.6 nmol intravenous", "value": "≤ 3", "unit": "h"}, {"measurement": "stability in vivo (skeletal signal)", "setting": "[3]; twelve hours post-injection", "value": "no degradation of skeletal signal"}, {"measurement": "time to asymptotic binding to HA", "setting": "[4]; 1.5 mg/ml HA", "value": "≤ 1", "unit": "h"}, {"measurement": "percent of peak binding to HA achieved", "setting": "[4]; five minutes, 1.5 mg/ml (1.5 mM) HA, NK buffer", "value": 37, "unit": "%"}, {"measurement": "concentration in ribs (mean±S.E.M.)", "setting": "[5]; caudal three ribs on each side, skinless animal, 2.6 nmol injected", "value": "910 ± 27", "unit": "nM"}, {"measurement": "skeletal uptake, percentage of injected dose", "setting": "[5]; out of 2.6 nmol injected", "value": 57, "unit": "%"}, {"measurement": "amount bound to the skeleton", "setting": "[5]; out of 2.6 nmol injected, assuming bone density 1.8 g/cm^3, skeletal weight 11.8% body weight", "value": 1.5, "unit": "nmol"}]}
{"smiles": "NCCC(O)(P(=O)(O)O)P(=O)(O)O", "note": "[pamidronate]", "values": [{"measurement": "inhibition of Pam78 binding to HA", "setting": "[6]", "value": 90, "unit": "%"}]}
{"smiles": "O.O.O=P([O-])([O-])CP(=O)([O-])[O-].[99Tc+4]", "note": "[^99mTc-MDP]", "values": [{"measurement": "skeletal uptake", "setting": "[7]", "value": 52, "unit": "%"}]}
